Source: article PMC12756723, “Derivatives of the Cashew Nut Shell Liquid as Ligands of Pseudomonas aeruginosa Phenazine Protein D (PaPhzD)” (ACS Omega, 2025)
“Also recorded” adds a separate entry of the source.

Key:
PaPhzD = molecular target: T1, PaPhzD (Pseudomonas aeruginosa, UniProt P0DPB9); test: Thermal shift assay (TSA) with SYPRO Orange; type: binding; settings: for ΔTm at 50 µM: read-out: ΔTm of PaPhzD; for Concentration–response behavior of ΔTm: 6.25 to 100 μM
T1 construct: inferred from Ni-NTA purification with imidazole elution; made in house; host or cells: E. coli BL21(DE3)
T1 sequence (P0DPB9 whole entry): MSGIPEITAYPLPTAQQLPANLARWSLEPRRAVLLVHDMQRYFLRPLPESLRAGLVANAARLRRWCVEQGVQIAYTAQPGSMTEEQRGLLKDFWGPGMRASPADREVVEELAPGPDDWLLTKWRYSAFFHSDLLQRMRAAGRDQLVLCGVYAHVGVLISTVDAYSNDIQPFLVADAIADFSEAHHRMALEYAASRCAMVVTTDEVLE
Procedure: Thermal shift assays were performed on an Applied Biosystems 7500 RT-PCR (Applied Biosystems, Foster City, CA USA). All experiments were carried out in triplicate with 1 °C per minute increments in temperatures that range from 25 to 85 °C in 96-well PCR plates (PCR plates 96-well, BioRad), sealed with transparent capping strips (Flatcap strips, BioRad). The fluorescence of SYPRO Orange (Invitrogen S6650) was monitored (excitation wavelength, 492 nm; emission wavelength, 610 nm). Before the compounds’ screening, protein and DMSO concentrations were evaluated to improve PaPhzD stability throughout the assay.
The protein concentration required for an optimal signal-to-noise ratio (>5-fold) was evaluated by analysis of the raw fluorescence curves at different PaPhzD concentrations (1–5 μM). Then, the effect of DMSO (0–10%) over PaPhzD T m was evaluated at the optimal protein concentration. Fluorescence raw data were recorded using Applied Biosystems 7500 Software v2.0 and then processed with NAMI software to calculate T m values by the first-derivative method.
LDT compounds were screened at a final concentration of 50 μM. Briefly, 1 μL of each compound (1 mM DMSO stock solution) was added to a mixed solution containing 5 μM PaPhzD diluted in 50 mM Tris–HCl buffer (pH 8.0) containing 100 mM NaCl, 1 mM DTT, and SYPRO Orange dye (Invitrogen S6650) (1:100 dilution). Each compound was assayed in triplicate, and ΔT m values were calculated by comparison to reference wells that had 1 μL DMSO instead of the LDT compounds. Differences between T m values (ΔT m) were considered statistically significant when p < 0.01, according to the one-way ANOVA followed by Dunnett’s post-test for multiple comparisons, available in GraphPad Prism 9.0 software (GraphPad Software, San Diego, CA, USA, www.graphpad.com).
Compounds with ΔT m values statistically different from the reference were also assayed at different concentrations (ranging from 6.25 to 100 μM) to evaluate the concentration–response behavior. The ΔT m versus concentration plots were generated using the nonlinear regression method available in GraphPad Prism version 9.0.

human PPAR isoforms = tested on: human PPAR isoforms; design: method as in Sahin et al. 2022 (likely, number not given); settings: previously investigated; ref Sahin et al. 2022 (likely, number not given); cited from earlier work
PPAR LBDs = tested on: PPAR LBDs; design: method as in not printed (previous PPAR work); settings: ref not given (previous PPAR work), cited from earlier work
PaPhzD-FITC = molecular target: T2, PaPhzD-FITC (Pseudomonas aeruginosa, UniProt P0DPB9); test: Fluorescence binding assay with FITC-labeled PaPhzD
T2 construct: inferred from Ni-NTA purification with imidazole elution; made in house; host or cells: E. coli BL21(DE3)
T2 sequence (P0DPB9 whole entry): as above
Procedure: PaPhzD (2.1 mg/mL) was incubated with 6 mg/mL fluorescein isothiocyanate (FITC) (Sigma-Aldrich 46950) (1:1) for 2 h at 25 °C. Next, the reaction mixture was eluted on a Hi-Trap HP desalting column (GE Healthcare) with 2 CV of 50 mM HEPES buffer (pH 8.0). The collected fractions were quantified at two different wavelengths (280 and 495 nm), and the molar ratio (Abs495/Abs280) ranging from 0.3 to 1.0 was employed for K d calculation experiments.
Subsequently, the fluorescence intensity of 0.32 μM of FITC-labeled PaPhzD was measured on a real-time thermocycler (Applied Biosystems 7500) equipped with the filter FAN (excitation wavelength: 498 nm; emission wavelength: 530 nm) for 10 min in the presence of different concentrations of each LDT compound (ranging 0.7–100 μM), previously diluted in DMSO.
The fluorescence raw data were recorded using Applied Biosystems 7500 Software v2.0, then exported to GraphPad Prism version 9.0 software to build fluorescence intensity × concentration plots and calculate K d values of the ligands by the nonlinear regression method (3-parameter fit). All experiments were carried out in triplicate using a 96-well PCR plate, manually sealed with transparent capping strips (Flatcap strips, BioRadVR).

[1] = tested on: P. aeruginosa cells (ATCC 27853); test: Screening of PYO production inhibitors (supernatant absorbance 691 nm); type: cell-based, Pseudomonas aeruginosa; settings: 100 μM; for Pyocyanin production, Cohen's d vs control: 24 h, 30 °C; for Effect on pyocyanin production: vs DMSO control
Procedure: P. aeruginosa cells (ATCC 27853) were inoculated by depletion on King’s A agar, and the plates were incubated at 30 °C for 24 h. Isolated colonies were collected and resuspended in sterile saline solution (0.85%) until turbidity equivalent to optical density (OD) at 600 nm, equal to 0.3 (1.5 × 10^8 CFU/mL). This bacterial suspension was diluted 10-fold and used to inoculate King’s A broth.
(§1) The potential inhibitors, previously solubilized in DMSO, were added to the culture medium after the inoculation (final concentration = 100 μM). The control group was cultured in the presence of an equivalent volume of DMSO but without the presence of potential inhibitors. The cell suspension was maintained at 30 °C under constant agitation (180 rpm) for 24 h in a 24-well plate. After this period, the OD600 was measured to evaluate bacterial growth, and in parallel, after being subjected to centrifugation, the supernatant was read in a 96-well plate at a wavelength of 691 nm. The sterile medium used for culturing the microorganism was used as a positive control, and culture medium containing 1% DMSO was used as a negative control.

[2] = tested on: P. aeruginosa cells (ATCC 27853); test: Bacterial growth (OD600) in the PYO screening culture; type: cell-based, Pseudomonas aeruginosa; settings: 100 μM
Procedure: as §1

P. aeruginosa PA14 [3] = test: Biofilm assay (crystal violet); type: cell-based, Pseudomonas aeruginosa; settings: 100 μM
Procedure: Exponential phase cultures of P. aeruginosa PA14 were diluted to 5 × 10^5 colony forming units (CFU) in 48-well plates with LB containing each compound (1, 3, and 5) at 100 μM final concentrations or 0.1% DMSO (v/v) as a negative control. The plate was incubated steadily at 30 °C for 20 h inside a plastic bag to avoid evaporation. After the incubation, the OD600 of each well was measured in a plate reader (SpectraMax Paradigm). The planktonic bacteria were removed by turning the plate over the waste, followed by three steps of washing with distilled water. After drying, a solution of 1% crystal violet was added to each well and incubated at room temperature for 30 min to stain the attached cells forming a ring at the air–liquid interface. The crystal violet solution was removed, and the plate was washed using the same procedure. The dye was solubilized with 30% acetic acid for 30 min at room temperature. The Abs550 was measured, and the value was divided by the OD600 for each well. A total of 24 replicates were made for each treatment (6 wells per plate, four plates)

P. aeruginosa PA14 [4] = test: Swarming assay; type: cell-based, Pseudomonas aeruginosa; settings: 100 μM
Procedure: Swarming assays were performed as described, using 6-well plates. Briefly, 3 μL of culture (OD600 = 3.0) was inoculated in the center of modified M9 (20 mM NH4Cl; 12 mM Na2HPO4; 22 mM KH2PO4; 8.6 mM NaCl; 1 mM MgSO4; 1 mM CaCl2 2 H2O; 11 mM glucose; 0.5% casamino acids (Difco)) with 0.5% of Bacto-agar (Difco), containing the respective compounds (100 μM final concentration, diluted in DMSO). Plates were incubated inside plastic bags to avoid evaporation at 30 °C for 16 h. After this period, pictures were taken, and the area covered by the colonies was measured using ImageJ. All assays were performed with four replicates, and 0.1% DMSO (v/v) was employed as a negative control.

P. aeruginosa = test: Colony morphology in medium containing compounds; type: cell-based, Pseudomonas aeruginosa; settings: data not shown
phzA1-G1 = test: lacZ transcriptional fusion, phzA1-G1 operon; type: cell-based, Pseudomonas aeruginosa; settings: late exponential phase
Procedure: (§2) P. aeruginosa harbors two identically structured operons in its genome, which encode most of the enzymes responsible for PYO synthesis (phzA1-G1 and phzA2-G2) but have slightly different regulatory regions 1. lacZ transcriptional fusions for each operon were assayed at mid-log and late exponential phases (OD=1 and 3, respectively). At mid-log cultures, the expression of both QS-regulated operons is extremely low, and it increases more than 1000-fold at late exponential phase for phzA1-G1 and 4-fold for phzA2-G2, as expected. Addition of compounds 2 and 4 had no effect for both operons in the late […]
(§3) synthesis is not related to inhibition at the transcriptional level.
(§4) Figure 7S: Effect of LDT10 (2) and LDT13 (3) on the phzA1-G1 (A) and phzA2-G2 […]
(§5) (1 picture or pasted object on this page, not shown here)

phzA2-G2 = test: lacZ transcriptional fusion, phzA2-G2 operon; type: cell-based, Pseudomonas aeruginosa; settings: late exponential phase
Procedure: as §2, §3, §4, §5

| Compound | ΔTm at 50 µM (PaPhzD) [°C] | PPAR activity profile (human PPAR isoforms) | Concentration–response behavior of ΔTm (PaPhzD) | further results |
| --- | --- | --- | --- | --- |
| CCCCCCCCCCCCCCCc1cccc(OCC(=O)OCC)c1 [Compound 13] | -1.2 | pan-agonist activity |  | Thermal shift in LBDs of PPARα and PPARγ (PPAR LBDs): negative thermal shift |
| CCCCCCCCCCCCCCCc1cccc(OC(C)=O)c1 [Compound 11] | < 0.5 | do not activate PPAR receptors |  |  |
| CCCCCCCCCCCCCCCc1ccc(C(=O)O)c(OC)c1 [Compound 10] | -1.2 | dual (PPARα and PPARγ) agonists |  |  |
| CCCCCCCCCCCCCCCc1cccc(O)c1C(=O)O [Compound 1] |  | dual (PPARα and PPARγ) agonists | clear concentration–response behavior |  |
| CCCCCCCCCCCCCCCc1cccc(OC)c1 [Compound 12] | < 0.5 | do not activate PPAR receptors |  |  |
| CCCCCCCCCCCCCCCc1cccc(OC(C)(C)C(=O)OCC)c1 [Compound 14] | < 0.5 | dual (PPARα and PPARγ) agonists |  | Effect on Tm values for all three PPARs (PPAR LBDs): no effect on the T m values |
| CCCCCCCCCCCCCCCc1cccc(OC(C)=O)c1C(=O)OC [Compound 8] | < 0.5 | do not activate PPAR receptors |  |  |
| CCCCCCCCCCCCCCCc1cccc(OCC(=O)O)c1 [Compound 15] | -3.8 | pan-agonist activity | clear concentration–response behavior | Kd (PaPhzD-FITC): 1000 µM |
| CCCCCCCCCCCCCCCc1cccc(OC)c1C(=O)O [Compound 4] | -3.3 | selective PPARα agonist | clear concentration–response behavior | Kd (PaPhzD-FITC): 3.6 µM; Pyocyanin production, Cohen's d vs control [1]: −2.69; Effect on pyocyanin production [1]: decreased pyocyanin production; Effect on bacterial growth [2]: without affecting bacterial growth; also recorded: no significant effect on bacterial growth; Effect on biofilm formation (P. aeruginosa PA14 [3]; vs DMSO control): without affecting bacterial growth or biofilm formation; also recorded: not significantly different the control; Swarming motility, % compared to control conditions (P. aeruginosa PA14 [4]): 65%; Swarming motility, Cohen's d vs control (P. aeruginosa PA14 [4]): −0.95; Effect on colony morphology (P. aeruginosa): No effects on colony morphology; Effect on phzA1-G1 transcription (phzA1-G1): no effect; Effect on phzA2-G2 transcription (phzA2-G2): no effect |
| CCCCCCCCCCCCCCCc1cccc(OC(C)=O)c1C(=O)O [Compound 3] | -4.7 | pan-agonist activity | clear concentration–response behavior | Kd (PaPhzD-FITC): 0.72 µM; Pyocyanin production, Cohen's d vs control [1]: −1.37; Effect on pyocyanin production [1]: no effect on pyocyanin production; Biofilm mass, % of the control (P. aeruginosa PA14 [3]): ~30%; Biofilm, Cohen's d vs control (P. aeruginosa PA14 [3]): −2.29; Effect on swarming coverage area (P. aeruginosa PA14 [4]): did not affect the coverage area; Swarming motility, Cohen's d vs control (P. aeruginosa PA14 [4]): 0.51; Effect on colony morphology (P. aeruginosa): No effects on colony morphology; Increase of PPAR LBDs Tm vs DMSO control (PPAR LBDs; 50 μM): up to +17 °C |
| CCCCCCCCCCCCCCCc1cccc(O)c1C(=O)OC [Compound 7] | < 0.5 | do not activate PPAR receptors |  |  |
| CCCCCCCCCCCCCCCc1cccc(OC)c1C(=O)OC [Compound 9] | < 0.5 | do not activate PPAR receptors |  |  |
| CCCCCCCCCCCCCCCc1cccc(OC(C)(C)C(=O)O)c1 [Compound 16] | -2.6 | pan-agonist activity |  |  |
